Data: patent US5604262A, “Topical antimicrobial agents” (Research Corporation Technologies, Inc., priority 1995, dated 1997)
Converted amounts (≈) assume the structure as drawn.

Assays:
Candia utilis ATCC 9226 = assay: MIC by two-fold serial broth dilution; assay type: cell-based, Candida utilis; conditions: C. utilis; for MIC: Williopsis jadinii, ATCC9226, 48 h, malt extract broth, two days, turbidity OD 660 nm
Excerpt: (§1) The microorganisms tested were from the American Type Culture Collection (Rockville, Md.). They are Bacillus subtilis ATCC 9372, Brevibacterium ammoniagenes ATCC 6872, Staphylococcus aureus ATCC 12598, Streptococus mutans ATCC 25175, Propionibacterium acnes ATCC 11827, Pseudimonas aeruginosa ATCC 10145, Enterobacter aerogenes ATCC 13048, Eschericia coli ATCC 9637, Proteus vulgaris ATCC […], Saccharomyces cerevisiae ATCC 7754, Candida utilis ATCC 9226, Pityrosporum ovale ATCC 14521, Penicillium chrysogenum ATCC 10106 and Trichophyton mentagrophytes ATCC 18748.
(§2) The bacterial culture media except for S. mutans was 0.8% nutrient broth (BBL), 0.5% yeast Extract (Difco) and 0.1% glucose (NYG broth). S. mutans was cultured in 3.7% brain heart infixsion broth (Difco). All fungi, except P. ovale and T. mentagrophytes were cultured in a 2.5% malt extract broth (BBL). P. ovale was cultured in 1% bactopeptone (Difco), 0.5% yeast extract, 1% glucose and 0.1% corn oil. For T. mentagrophytes the culture media was 1% bactopeptone and 4% glucose.
(§3) Freeze dried samples were prepared for testing as follows. B. subtilis, S. cerevisiae, C. utilis, and P. ovale, were shake-cultured for two days at 30° C. P. chrysogenum and T. mentagrophytes were shake-cultured for 5 days at 30° C. B. ammoniagenes and E. aerogenes were stationarily cultured at 30° C. S. aureus, S. mutans, P. acnes, P. aeruginosa, E. coli and P. vulgaris were stationarily cultured at 37° C.
(§4) The minimum inhibitory concentration (MIC) of the 3-alken-2-ones (compounds 1-4, 6-8) and 3,13-tetradecadien-2-one (compound 5) was performed using a two-fold serial broth dilution. Each test compound was dissolved in DMF and 30 μL of this sample was dissolved in 3 mL of the applicable medium. A 30 μL sample of the previously described culture of each microorganism was added to the various medium solutions. After two days, the cultures of B. subtilis, S. cerevisiae, C. utilis B. ammoniagenes, E. aerogenes, S. aureus, S. mutans, P. acnes, P. aeruginosa, E. coli and P. vulgaris were examined for turbidity (OD at 660 nm). The fungi, P. ovale, P. chrysogenum and T. mentagrophytes, were examined visually for growth at 3 days (P. ovale) and 5 days (P. chrysogenum and T. mentagrophytes). The MIC was determined as the lowest concentration for each compound that no growth was observed. The highest concentration used in these tests was 800 μg/mL.

[1] = test system: Saccharomyces cerevisiae ATCC 7754; assay: MIC by two-fold serial broth dilution; assay type: cell-based; conditions: S. cerevisiae; for MIC: Saccharomyces cerevisiae, ATCC7754, 48 h, malt extract broth, two days, turbidity OD 660 nm
Excerpt: as §1, §2, §3, §4

[2] = test system: Pityrosporum ovale ATCC 14521; assay: MIC by two-fold serial broth dilution; assay type: cell-based; conditions: P. ovale; for MIC: 72 h, bactopeptone/yeast extract/glucose/corn oil, 3 days, visual
Excerpt: as §1, §2, §3, §4

[3] = test system: Penicillium chrysogenum ATCC 10106; assay: MIC by two-fold serial broth dilution; assay type: cell-based; conditions: P. chrysogenum; for MIC: Penicillium chrysogenum, ATCC10106, 120 h, malt extract broth, 5 days, visual
Excerpt: as §1, §2, §3, §4

[4] = test system: Streptococus mutans ATCC 25175; assay: MIC by two-fold serial broth dilution; assay type: cell-based; conditions: S. mutans; for MIC: Streptococcus mutans, ATCC25175, 48 h, brain heart infusion broth, two days, turbidity OD 660 nm
Excerpt: as §1, §2, §3, §4

[5] = test system: Bacillus subtilis ATCC 9372; assay: MIC by two-fold serial broth dilution; assay type: cell-based; conditions: B. subtilis; for MIC: Bacillus subtilis, ATCC9372, 48 h, NYG broth, two days, turbidity OD 660 nm
Excerpt: as §1, §2, §3, §4

[6] = test system: Enterobacter aerogenes ATCC 13048; assay: MIC by two-fold serial broth dilution; assay type: cell-based; conditions: E. aerogenes; for MIC: Klebsiella aerogenes, ATCC13048, 48 h, NYG broth, two days, turbidity OD 660 nm
Excerpt: as §1, §2, §3, §4

[7] = test system: Brevibacterium ammoniagenes ATCC 6872; assay: MIC by two-fold serial broth dilution; assay type: cell-based; conditions: B. ammoniagenes; for MIC: Corynebacterium ammoniagenes, ATCC6872, 48 h, NYG broth, two days, turbidity OD 660 nm
Excerpt: as §1, §2, §3, §4

[8] = test system: Staphylococcus aureus ATCC 12598; assay: MIC by two-fold serial broth dilution; assay type: cell-based; conditions: S. aureus; for MIC: Staphylococcus aureus, ATCC12598, 48 h, NYG broth, two days, turbidity OD 660 nm
Excerpt: as §1, §2, §3, §4

[9] = test system: Pseudimonas aeruginosa ATCC 10145; assay: MIC by two-fold serial broth dilution; assay type: cell-based; conditions: P. aeruginosa; for MIC: Pseudomonas aeruginosa, ATCC10145, 48 h, NYG broth, two days, turbidity OD 660 nm
Excerpt: as §1, §2, §3, §4

[10] = test system: Trichophyton mentagrophytes ATCC 18748; assay: MIC by two-fold serial broth dilution; assay type: cell-based; conditions: ATCC18748, 120 h, T. mentagrophytes, bactopeptone/glucose, 5 days, visual
Excerpt: as §1, §2, §3, §4

[11] = test system: Proteus vulgaris ATCC 133315; assay: MIC by two-fold serial broth dilution; assay type: cell-based; conditions: ATCC133315, 48 h, P. vulgaris, NYG broth, two days, turbidity OD 660 nm
Excerpt: as §1, §2, §3, §4

[12] = test system: Propionibacterium acnes ATCC 11827; assay: MIC by two-fold serial broth dilution; assay type: cell-based; conditions: P. acnes; for MIC: Cutibacterium acnes, ATCC11827, 48 h, NYG broth, two days, turbidity OD 660 nm
Excerpt: as §1, §2, §3, §4

[13] = test system: Eschericia coli ATCC 9637; assay: MIC by two-fold serial broth dilution; assay type: cell-based; conditions: E. coli; for MIC: Escherichia coli, ATCC9637, 48 h, NYG broth, two days, turbidity OD 660 nm
Excerpt: as §1, §2, §3, §4

Pr. acnes = conditions: Kubo et al. 1994; cited from earlier work
fungi = conditions: Moleyar et al. 1986; cited from earlier work
S. mutans = conditions: Kubo et al. 1993; cited from earlier work
[14] = background statement; cited from earlier work
[15] = test system: bacteria and fungi in the test, except S. mutans and P. acnes; assay: MIC test, all bacteria and fungi except S. mutans and P. acnes; assay type: cell-based; conditions: all of the bacteria and fungi in the test
Excerpt: as §1, §2
Freeze dried samples were prepared for testing as follows. […]
The minimum inhibitory concentration (MIC) of the 3-alken-2-ones (compounds 1-4, 6-8) and 3,13-tetradecadien-2-one (compound 5) was performed using a two-fold serial broth dilution. […] The MIC was determined as the lowest concentration for each compound that no growth was observed. […]

| Compound | MIC (Candia utilis ATCC 9226) [µg/mL] | MIC [1] [µg/mL] | MIC [2] [µg/mL] | MIC [3] [µg/mL] | MIC [4] [µg/mL] | MIC [5] [µg/mL] | MIC [6] [µg/mL] | MIC [7] [µg/mL] | MIC [8] [µg/mL] | MIC [9] [µg/mL] | MIC [10] [µg/mL] | MIC [11] [µg/mL] | MIC [12] [µg/mL] | MIC [13] [µg/mL] | other results |
| --- | --- | --- | --- | --- | --- | --- | --- | --- | --- | --- | --- | --- | --- | --- | --- |
| CCCCCCC/C=C/C(C)=O [Compound 1, (E)-3-Undecen-2-one] | 50 (≈ 297 µM) | 800 (≈ 4750 µM) | 100 (≈ 594 µM) | 100 (≈ 594 µM) | 100 (≈ 594 µM) | 100 (≈ 594 µM) | > 800 | 200 (≈ 1190 µM) | 200 (≈ 1190 µM) | > 800 | 100 (≈ 594 µM) | 50 (≈ 297 µM) | 50 (≈ 297 µM) | > 800 | – |
| CC(C)=CCCC(C)=CCCC(C)=CCCC(C)O (centres unmarked) [farnesyl acetol] | – | – | – | – | – | – | – | – | – | – | – | – | – | – | activity against Pr. acnes (in words) (Pr. acnes): exhibited activity |
| C=C(C)C1CC=C(C)C(=O)C1 (centres unmarked) [Carvone] | – | – | – | – | – | – | – | – | – | – | – | – | – | – | antifungal activity (in words) (fungi): antifungal activity |
| CCCCCCCC/C=C/C(C)=O [Compound 2, (E)-3-Dodecen-2-one] | 400 (≈ 2190 µM) | 800 (≈ 4390 µM) | 100 (≈ 549 µM) | 100 (≈ 549 µM) | 50 (≈ 274 µM) | 100 (≈ 549 µM) | > 800 | 100 (≈ 549 µM) | 100 (≈ 549 µM) | > 800 | 100 (≈ 549 µM) | 50 (≈ 274 µM) | 25 (≈ 137 µM) | > 800 | – |
| CC(=O)/C=C/C1=C(C)CCCC1(C)C [β-ionone] | – | – | – | – | – | – | – | – | – | – | – | – | – | – | antibacterial activity (in words) (S. mutans): moderate antibacterial activity |
| CC(C)=CCCC(C)=CCCC(C)O (centres unmarked) [geranylacetol] | – | – | – | – | – | – | – | – | – | – | – | – | – | – | activity against Pr. acnes (in words) (Pr. acnes): exhibited activity |
| CC(=O)CCC=C(C)CCC=C(C)CCC=C(C)C [farnesylacetone] | – | – | – | – | – | – | – | – | – | – | – | – | – | – | activity against Pr. acnes (in words) (Pr. acnes): inactive |
| ionone | – | – | – | – | – | – | – | – | – | – | – | – | – | – | allergic skin reactions [14]: can cause allergic skin reactions |
| CC(C)=CCCC(C)=CCCC(C)=CCO [farnesol] | – | – | – | – | – | – | – | – | – | – | – | – | – | – | activity against Pr. acnes (in words) (Pr. acnes): exhibited activity |
| CCCCCCCCCC/C=C/C(C)=O [Compound 4, (E)-3-Tetradecen-2-one] | > 800 | > 800 | 100 (≈ 475 µM) | 800 (≈ 3800 µM) | 25 (≈ 119 µM) | > 800 | > 800 | > 800 | > 800 | > 800 | 12.5 (≈ 59.4 µM) | > 800 | 12.5 (≈ 59.4 µM) | > 800 | activity (in words) (Candia utilis ATCC 9226): no activity; activity (in words) [1]: no activity; activity (in words) [2]: moderate inhibition; activity (in words) [3]: Weak activity; activity (in words) [4]: showed activity; activity (in words) [6]: not active; activity (in words) [9]: not active; activity (in words) [12]: showed activity; activity (in words) [13]: not active |
| CCCCCCCCCCC/C=C/C(C)=O [Compound 6, (E)-3-Pentadecen-2-one] | > 800 | > 800 | 400 (≈ 1780 µM) | > 800 | 200 (≈ 891 µM) | > 800 | > 800 | > 800 | > 800 | > 800 | 800 (≈ 3570 µM) | > 800 | 6.25 (≈ 27.9 µM) | > 800 | – |
| C=CCCCCCCCC/C=C/C(C)=O [Compound 5, (E)-3,13-Tetradecadien-2-one] | > 800 | > 800 | 200 (≈ 960 µM) | 800 (≈ 3840 µM) | 25 (≈ 120 µM) | > 800 | > 800 | > 800 | > 800 | > 800 | 12.5 (≈ 60 µM) | > 800 | 12.5 (≈ 60 µM) | > 800 | – |
| CCCCCCCCC/C=C/C(C)=O [Compound 3, (E)-3-Tridecen-2-one] | > 800 | > 800 | 100 (≈ 509 µM) | 800 (≈ 4070 µM) | 25 (≈ 127 µM) | 100 (≈ 509 µM) | > 800 | 100 (≈ 509 µM) | 50 (≈ 255 µM) | > 800 | 25 (≈ 127 µM) | 800 (≈ 4070 µM) | 12.5 (≈ 63.7 µM) | > 800 | activity (in words) (Candia utilis ATCC 9226): no activity; activity (in words) [1]: no activity; activity (in words) [2]: moderate inhibition; activity (in words) [3]: Weak activity; activity (in words) [4]: showed activity; activity (in words) [5]: showed activity; activity (in words) [6]: not active; activity (in words) [7]: showed activity; activity (in words) [8]: showed activity; activity (in words) [9]: not active; activity (in words) [12]: showed activity; activity (in words) [13]: not active |
| CCCCCCCCCCCCC/C=C/C(C)=O [Compound 8, (E)-3-Heptadecen-2-one] | > 800 | > 800 | > 800 | > 800 | 800 (≈ 3170 µM) | > 800 | > 800 | > 800 | > 800 | > 800 | > 800 | > 800 | 3.13 (≈ 12.4 µM) | > 800 | activity (in words) [15]: inactive; activity (in words) [12]: strong activity |
| CC(=O)/C=C/C1C(C)=CCCC1(C)C (stereo not drawn) [α-ionone] | – | – | – | – | – | – | – | – | – | – | – | – | – | – | antibacterial activity (in words) (S. mutans): moderate antibacterial activity |
| CCCCCCCCCCCC/C=C/C(C)=O [Compound 7, (E)-3-Hexadecen-2-one] | > 800 | > 800 | > 800 | > 800 | 400 (≈ 1680 µM) | > 800 | > 800 | > 800 | > 800 | > 800 | > 800 | > 800 | 3.13 (≈ 13.1 µM) | > 800 | activity (in words) [15]: inactive; activity (in words) [4]: weakly active; activity (in words) [12]: strong activity |
